{"source": "patent US20190328721A1", "about": "“METHOD OF ACTIVATING DENDRITIC CELLS” (KOREA INSTITUTE OF SCIENCE AND TECHNOLOGY, priority 2018, published 2019)", "tested_on": "OT-1 T cells", "assay": "Proliferation of injected CFSE-stained OT-1 T cells in B16F10-Ova-bearing mice", "assay_type": "in vivo", "details": "3 days after injection", "experimental": "Specifically, Y27632 was administered to the B16F10-Ova-bearing cancer model mice according to the administration schedule described in Example 2-1, and OT-1 T cells stained with CFSE (carboxyfluorescein succinimidyl ester, Thermo Fisher Scientific, Inc., USA) were injected into the cancer model mice and the degree of proliferation of T cells was confirmed 3 days later (FIG. 14A).", "data": [{"smiles": "C[C@@H](N)[C@H]1CC[C@H](C(=O)Nc2ccncc2)CC1", "note": "[Y27632]", "values": [{"measurement": "proliferation of OT-1 T cells", "value": "significantly increased"}]}]}
